inhibition, IC50 and Ratio IC50 data for 29 compounds are collected here from ChEMBL document CHEMBL4184312, “Discovery of novel CDK inhibitors via scaffold hopping from CAN508” (Bioorg Med Chem Lett, 2018).

In test [1] the target is CDK9/cyclin T1 (Homo sapiens) (UniProt O60563+P50750). Briefly: Inhibition of recombinant human CDK9/cyclin T1 at 10 uM using Ulight-CFFKNIVTPRTPPPSQGK-amide as substrate after 90 mins by fluorescence assay relative to control. It counts as protein-complex assay.
Test [2] addresses CDK2/Cyclin A2 (Homo sapiens) (UniProt P24941+P20248). Nature of the test: Inhibition of recombinant human CDK2/cyclin A at 10 uM using Ulight-CFFKNIVTPRTPPPSQGK-amide as substrate after 15 mins by fluorescence assay relative to control. The test is classed as protein-complex assay.
Test [3] addresses CDK9/cyclin T1 (Homo sapiens, UniProt P50750). Briefly: Inhibition of recombinant human CDK9/cyclin T1 using Ulight-CFFKNIVTPRTPPPSQGK-amide as substrate after 90 mins by fluorescence assay relative to control. It counts as protein-complex assay.
Test [4] has as its target CDK2/Cyclin A2 (Homo sapiens, UniProt P24941). Briefly: Inhibition of recombinant human CDK2/cyclin A using Ulight-CFFKNIVTPRTPPPSQGK-amide as substrate after 15 mins by fluorescence assay relative to control. It counts as protein-complex assay.
Test [5] is filed under the species Homo sapiens. Nature of the test: Selectivity ratio of IC50 for recombinant human CDK9/cyclin T1 to IC50 for recombinant human CDK2/cyclin A.

Chain of CDK9/cyclin T1 (O60563 whole entry): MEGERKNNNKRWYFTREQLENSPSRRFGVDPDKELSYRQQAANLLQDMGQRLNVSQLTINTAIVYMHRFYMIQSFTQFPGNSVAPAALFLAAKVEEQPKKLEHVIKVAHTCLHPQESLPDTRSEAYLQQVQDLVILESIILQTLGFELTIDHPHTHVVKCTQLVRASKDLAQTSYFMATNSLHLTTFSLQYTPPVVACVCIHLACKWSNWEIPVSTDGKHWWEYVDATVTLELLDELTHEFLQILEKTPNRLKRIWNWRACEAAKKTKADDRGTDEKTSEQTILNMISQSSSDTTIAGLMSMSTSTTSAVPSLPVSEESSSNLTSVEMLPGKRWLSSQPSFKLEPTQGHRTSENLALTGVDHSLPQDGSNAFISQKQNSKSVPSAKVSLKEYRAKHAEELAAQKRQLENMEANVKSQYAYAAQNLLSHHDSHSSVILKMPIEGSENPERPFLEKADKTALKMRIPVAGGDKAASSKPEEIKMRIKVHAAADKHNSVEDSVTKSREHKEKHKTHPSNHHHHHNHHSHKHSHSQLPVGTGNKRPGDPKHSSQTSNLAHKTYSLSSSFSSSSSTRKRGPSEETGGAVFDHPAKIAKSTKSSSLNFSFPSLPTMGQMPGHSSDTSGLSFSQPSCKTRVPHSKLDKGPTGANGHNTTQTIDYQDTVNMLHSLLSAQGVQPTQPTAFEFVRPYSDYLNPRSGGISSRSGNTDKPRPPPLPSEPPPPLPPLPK
Chain of CDK9/cyclin T1 (P50750 whole entry): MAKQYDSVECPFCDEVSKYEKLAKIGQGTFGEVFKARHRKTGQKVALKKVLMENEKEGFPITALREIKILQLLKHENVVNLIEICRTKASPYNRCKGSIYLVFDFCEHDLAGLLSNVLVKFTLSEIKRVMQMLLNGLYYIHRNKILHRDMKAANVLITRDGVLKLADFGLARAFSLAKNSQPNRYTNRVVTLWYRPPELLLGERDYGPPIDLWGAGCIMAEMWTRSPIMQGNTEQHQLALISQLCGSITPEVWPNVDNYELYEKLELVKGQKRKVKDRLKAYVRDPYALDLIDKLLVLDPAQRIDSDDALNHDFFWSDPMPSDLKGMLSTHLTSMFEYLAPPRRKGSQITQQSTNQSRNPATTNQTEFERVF

`O=C(Nc1n[nH]c2ncc(-c3ccccc3O)cc12)C1CCCCC1`: the inhibition is 78% in test [1] and 80% in test [2]. Also, the IC50 in test [3] turned out to be 3.6 µM.
Consider `Nc1n[nH]c2ncc(-c3ccc(F)cc3)cc12`, for which the inhibition in test [1] worked out at 38%; in test [2], 51%.
With `Nc1n[nH]c2ncc(-c3cncnc3)cc12`, the inhibition in test [1] was 50%; in test [2], 33%.
Turning to `O=C(O)c1ccc(-c2cnc3[nH]nc(NC(=O)C4CCCCC4)c3c2)cc1`, the inhibition in test [1] and in test [2] was less than 10% throughout.
In the case of `Nc1n[nH]c2ncc(-c3ccc(O)cc3)cc12`, the inhibition is 48% in test [1] and 58% in test [2].
In the same order, the values of `O=C(Nc1n[nH]c2ncc(-c3ccc([N+](=O)[O-])cc3)cc12)C1CCCCC1` are less than 10% and less than 10%.
For the compound `O=C(Nc1n[nH]c2ncc(-c3ccc(O)cc3)cc12)C1CCCCC1`, the figures for the inhibition in test [1] and in test [2] were 70% and 86%, respectively. In test [3], the IC50 was found to be 10.4 µM.
For the compound `O=C(Nc1n[nH]c2ncc(-c3cccc(O)c3)cc12)C1CCCCC1`, the inhibition is 62% in test [1] and 63% in test [2].
As to `CCC(=O)Nc1n[nH]c2ncc(-c3ccc(O)cc3)cc12`, the inhibition stood at 70% in test [1] and 90% in test [2]. Besides, the IC50 was determined as 0.82 µM in test [4] and 2.4 µM in test [3].
In the case of `O=C(Nc1n[nH]c2ncc(-c3ccc(F)cc3)cc12)C1CCCCC1`, the inhibition was 32% in test [1] and less than 10% in test [2].
In the same order, the values of `CN1CCN(CCC(=O)Nc2n[nH]c3ncc(-c4ccc(O)cc4)cc23)CC1` are 49% and 51%.
In the same order, the values of `CC(C)CC(=O)Nc1n[nH]c2ncc(-c3ccc(O)cc3)cc12` are 19% and 54%.
In the same order, the values of `CN(C)CC(=O)Nc1n[nH]c2ncc(-c3ccc(O)cc3)cc12` are 56% and 52%.
As to `O=C(CCCl)Nc1n[nH]c2ncc(-c3ccc(O)cc3)cc12`, the inhibition in test [1] amounted to 73%; in test [2], 98%. For the same compound, the IC50 in test [4] amounted to 0.66 µM; in test [3] it was 2.4 µM.
`CCCCC(=O)Nc1n[nH]c2ncc(-c3ccc(O)cc3)cc12`: the inhibition was determined as 73% in test [1] and 87% in test [2]. Further, the IC50 in test [3] is 3.5 µM.
As to `COc1ccc(-c2cnc3[nH]nc(N)c3c2)cc1`, the inhibition in test [1] and in test [2] was less than 10% throughout.
For `CCC(CC)C(=O)Nc1n[nH]c2ncc(-c3ccc(O)cc3)cc12`, the values for the inhibition in test [1] and in test [2] were 12% and 63%, respectively. The IC50 was 2 µM in test [4] and 529 µM in test [3]. Besides, the Ratio IC50 in test [5] amounted to 265.
As to `O=C(Cc1ccccc1)Nc1n[nH]c2ncc(-c3ccc(O)cc3)cc12`, the inhibition in test [1] is 25%; in test [2], 70%.
In the same order, the values of `CC(C)(C)CC(=O)Nc1n[nH]c2ncc(-c3ccc(O)cc3)cc12` are 59% and 77%.
In the same order, the values of `O=C(Nc1n[nH]c2ncc(-c3ccncc3)cc12)C1CCCCC1` are 59% and 59%.
The like results for `CN(C)CCC(=O)Nc1n[nH]c2ncc(-c3ccc(O)cc3)cc12` were, in that order, 48% and 59%.
Take `N#Cc1ccc(-c2cnc3[nH]nc(NC(=O)C4CCCCC4)c3c2)cc1`: the inhibition in test [1] and in test [2] was less than 10% each time.
Consider `O=C(Nc1n[nH]c2ncc(-c3cncnc3)cc12)C1CCCCC1`, for which the inhibition in test [1] turned out to be 83%; in test [2], 96%. In addition, the IC50 is 0.36 µM in test [4] and 1.8 µM in test [3].
Consider `O=C(Nc1n[nH]c2ncc(-c3ccc(CO)cc3)cc12)C1CCCCC1`, for which the inhibition in test [1] turned out to be 31%; in test [2] it was 34%.
In the same order, the values of `CNCC(=O)Nc1n[nH]c2ncc(-c3ccc(O)cc3)cc12` are 64% and 68%.
The like results for `O=C(CCN1CCOCC1)Nc1n[nH]c2ncc(-c3ccc(O)cc3)cc12` were, in that order, 21% and 44%.
In the case of `Nc1n[nH]c(N)c1/N=N/c1ccc(O)cc1`, the half-maximal inhibitory concentration (IC50) in test [4] worked out at 13.1 µM.
Regarding `CNCCC(=O)Nc1n[nH]c2ncc(-c3ccc(O)cc3)cc12`, the inhibition stood at 64% in test [1] and 39% in test [2].
In the same order, the values of `CC(C)c1ccc(-c2cnc3[nH]nc(N)c3c2)cc1` are less than 10% and less than 10%.
